# Test results as given in the supplement of paper PMC10307832.
# Compound: C[C@@H](Oc1cc(-c2cnn(C3CCNCC3)c2)cnc1N)c1c(Cl)ccc(F)c1Cl [Crizotinib] + CCNC(=O)c1noc(-c2cc(C(C)C)c(O)cc2O)c1-c1ccc(CN2CCOCC2)cc1 [Luminespib] (partner 0.01 µM)
# Assay: relative viability (nuclei count vs DMSO), 5 days (fraction); higher = more cells survive
# Settings: first compound 0.01 µM
# How it was run: (§1)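 Cells from lung cancer lines were seeded into 1536-well plates and, one day later, dosed by pin tool. Treatments were either a single drug or a fixed dose of an anchor drug with five library-drug doses (not always all listed) in √10 steps. After 5 days, nuclei were stained in a one-step fixation (final 0.05% Triton X-100, 1% formaldehyde, 1 ug/ml Hoechst) and counted on 4× images, and relative viability is the treated-to-vehicle nuclei ratio, as the median of duplicate plates.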
row,Cell Line,relative viability
1,NCI-H1755,0.428
2,NCI-H1915,0.775
3,NCI-H1944,0.671
4,NCI-H1975,0.144
5,NCI-H1993,0.905
6,NCI-H2009,0.994
7,NCI-H2023,0.714
8,NCI-H2085,0.551
9,NCI-H2087,0.18
10,NCI-H2126,0.717
11,NCI-H2170,0.914
12,NCI-H2228,0.119
13,NCI-H2347,0.212
14,NCI-H2405,0.629
15,NCI-H3122,0.119
16,PC-3 [JPC-3],0.727
17,PC-14,0.156
18,RERF-LC-KJ,1.22

# Same assay, conditions: first compound 0.03162 µM
row,Cell Line,relative viability
1,NCI-H358,0.431
2,NCI-H460,0.0313
3,NCI-H520,0.258
4,NCI-H596,1.18
5,NCI-H647,0.14
6,NCI-H650,0.75
7,NCI-H661,0.92
8,NCI-H727,0.346
9,NCI-H838,0.275
10,NCI-H1355,0.749
11,NCI-H1395,0.621
12,NCI-H1437,1.15
13,NCI-H1650,0.193
14,NCI-H1651,0.74
15,NCI-H1666,1
16,NCI-H1734,0.182
17,NCI-H1755,0.482

row,Cell Line,relative viability
1,NCI-H1915,0.817
2,NCI-H1944,0.648
3,NCI-H1975,0.148
4,NCI-H1993,0.889
5,NCI-H2009,1.02
6,NCI-H2023,0.754
7,NCI-H2085,0.394
8,NCI-H2087,0.181
9,NCI-H2126,0.886
10,NCI-H2170,0.806
11,NCI-H2228,0.16
12,NCI-H2347,0.458
13,NCI-H2405,0.706
14,NCI-H3122,0.0745
15,PC-3 [JPC-3],0.649
16,PC-14,0.152
17,RERF-LC-KJ,1.31

# Same assay, conditions: first compound 0.1 µM
row,Cell Line,relative viability
1,NCI-H358,0.488
2,NCI-H460,0.0367
3,NCI-H520,0.243
4,NCI-H596,0.942
5,NCI-H647,0.146
6,NCI-H661,0.892
7,NCI-H727,0.296
8,NCI-H838,0.312
9,NCI-H1355,0.644
10,NCI-H1395,0.692
11,NCI-H1437,1.14
12,NCI-H1650,0.202
13,NCI-H1651,0.831
14,NCI-H1666,1.09
15,NCI-H1734,0.209
16,NCI-H1755,0.445

row,Cell Line,relative viability
1,NCI-H1915,0.721
2,NCI-H1944,0.646
3,NCI-H1975,0.167
4,NCI-H2009,0.988
5,NCI-H2023,0.61
6,NCI-H2085,0.431
7,NCI-H2087,0.168
8,NCI-H2170,0.649
9,NCI-H2228,0.132
10,NCI-H2347,0.482
11,NCI-H2405,0.697
12,NCI-H3122,0.0793
13,PC-3 [JPC-3],0.741
14,PC-14,0.183
15,RERF-LC-KJ,1.29

# Same assay, conditions: first compound 0.3162 µM
row,Cell Line,relative viability
1,NCI-H358,0.416
2,NCI-H460,0.0315
3,NCI-H520,0.258
4,NCI-H596,1.18
5,NCI-H647,0.152
6,NCI-H650,0.798
7,NCI-H838,0.326
8,NCI-H1355,0.641
9,NCI-H1395,0.759
10,NCI-H1437,1.17
11,NCI-H1650,0.18
12,NCI-H1651,1.09
13,NCI-H1666,0.991
14,NCI-H1755,0.554
15,NCI-H1944,0.872
16,NCI-H1975,0.223
17,NCI-H1993,0.852
18,NCI-H2009,1.01
19,NCI-H2023,0.58
20,NCI-H2126,0.861
21,NCI-H2170,0.606
22,NCI-H2228,0.122
23,NCI-H2347,0.681
24,NCI-H2405,0.785
25,NCI-H3122,0.0767
26,PC-3 [JPC-3],0.678
27,PC-14,0.186
28,RERF-LC-KJ,1.21

# Same assay, conditions: first compound 1 µM
row,Cell Line,relative viability
1,NCI-H358,0.334
2,NCI-H460,0.0386
3,NCI-H520,0.231
4,NCI-H596,1.01
5,NCI-H647,0.153
6,NCI-H650,0.942
7,NCI-H661,0.908
8,NCI-H727,0.509
9,NCI-H838,0.254
10,NCI-H1355,0.783
11,NCI-H1395,0.627
12,NCI-H1437,1.22
13,NCI-H1650,0.206
14,NCI-H1651,0.942
15,NCI-H1666,0.999
16,NCI-H1734,0.193
17,NCI-H1755,0.266

row,Cell Line,relative viability
1,NCI-H1915,0.862
2,NCI-H1944,0.777
3,NCI-H1975,0.178
4,NCI-H2009,1.08
5,NCI-H2023,0.592
6,NCI-H2085,0.428
7,NCI-H2087,0.134
8,NCI-H2126,0.916
9,NCI-H2170,0.511
10,NCI-H2228,0.119
11,NCI-H2347,0.404
12,NCI-H2405,0.806
13,NCI-H3122,0.105
14,PC-3 [JPC-3],0.78
15,PC-14,0.168
16,RERF-LC-KJ,1.21

# Compound: CC(C)C[C@H](NC(=O)[C@H](CCc1ccccc1)NC(=O)CN1CCOCC1)C(=O)N[C@@H](Cc1ccccc1)C(=O)N[C@@H](CC(C)C)C(=O)[C@@]1(C)CO1 [Carfilzomib] + O=C(CCCCCCC(=O)Nc1ccccc1)NO [Vorinostat] (partner 1 µM)
# Assay: as above
# Settings: first compound 0.001 µM
# How it was run: as §1
row,Cell Line,relative viability
1,NCI-H358,0.69
2,NCI-H460,0.743
3,NCI-H520,0.684
4,NCI-H596,0.585
5,NCI-H647,0.69
6,NCI-H650,0.354
7,NCI-H661,0.821
8,NCI-H727,0.999
9,NCI-H838,0.922
10,NCI-H1355,0.533
11,NCI-H1437,0.834
12,NCI-H1650,0.65
13,NCI-H1651,0.602
14,NCI-H1666,0.972
15,NCI-H1734,0.75
16,NCI-H1755,0.806
17,NCI-H1915,0.499

row,Cell Line,relative viability
1,NCI-H1944,0.523
2,NCI-H1975,0.706
3,NCI-H1993,0.631
4,NCI-H2009,0.717
5,NCI-H2023,0.471
6,NCI-H2085,0.71
7,NCI-H2087,0.474
8,NCI-H2126,0.748
9,NCI-H2170,0.751
10,NCI-H2228,0.728
11,NCI-H2347,0.712
12,NCI-H2405,0.998
13,NCI-H3122,0.841
14,PC-3 [JPC-3],0.784
15,PC-14,0.71
16,RERF-LC-KJ,0.7

# Same assay, conditions: first compound 0.003162 µM
row,Cell Line,relative viability
1,NCI-H358,0.692
2,NCI-H460,0.661
3,NCI-H520,0.605
4,NCI-H596,0.612
5,NCI-H647,0.483
6,NCI-H650,0.468
7,NCI-H661,0.861
8,NCI-H727,1.14
9,NCI-H838,0.774
10,NCI-H1355,0.703
11,NCI-H1395,0.791
12,NCI-H1437,0.895
13,NCI-H1650,0.475
14,NCI-H1651,0.597
15,NCI-H1666,0.933
16,NCI-H1734,0.932
17,NCI-H1755,0.793

row,Cell Line,relative viability
1,NCI-H1915,0.537
2,NCI-H1944,0.744
3,NCI-H1975,0.611
4,NCI-H1993,0.804
5,NCI-H2009,0.821
6,NCI-H2023,0.657
7,NCI-H2085,0.879
8,NCI-H2087,0.601
9,NCI-H2126,0.868
10,NCI-H2170,0.86
11,NCI-H2228,0.657
12,NCI-H2347,0.53
13,NCI-H2405,1.17
14,NCI-H3122,0.819
15,PC-3 [JPC-3],0.808
16,PC-14,0.754
17,RERF-LC-KJ,0.683

# Same assay, conditions: first compound 0.01 µM
row,Cell Line,relative viability
1,NCI-H358,0.515
2,NCI-H460,0.68
3,NCI-H520,0.192
4,NCI-H596,0.448
5,NCI-H647,0.137
6,NCI-H650,0.532
7,NCI-H661,0.808
8,NCI-H727,1.45
9,NCI-H838,0.719
10,NCI-H1355,0.664
11,NCI-H1395,0.469
12,NCI-H1437,1.14
13,NCI-H1650,0.19
14,NCI-H1651,0.447
15,NCI-H1666,1.15
16,NCI-H1734,0.592
17,NCI-H1755,0.664

row,Cell Line,relative viability
1,NCI-H1915,0.452
2,NCI-H1944,0.527
3,NCI-H1975,0.261
4,NCI-H1993,0.876
5,NCI-H2009,0.757
6,NCI-H2023,0.619
7,NCI-H2085,0.497
8,NCI-H2087,0.225
9,NCI-H2126,0.904
10,NCI-H2170,0.916
11,NCI-H2228,0.468
12,NCI-H2347,0.432
13,NCI-H2405,1.06
14,NCI-H3122,1.06
15,PC-3 [JPC-3],1.1
16,PC-14,0.228
17,RERF-LC-KJ,0.676

# Same assay, conditions: first compound 0.03162 µM
row,Cell Line,relative viability
1,NCI-H358,0.0656
2,NCI-H460,0.093
3,NCI-H520,0.156
4,NCI-H596,0.173
5,NCI-H647,0.0309
6,NCI-H650,0.132
7,NCI-H661,0.553
8,NCI-H727,1.01
9,NCI-H838,0.199
10,NCI-H1355,0.569
11,NCI-H1395,0.306
12,NCI-H1437,0.435
13,NCI-H1650,0.152
14,NCI-H1651,0.188
15,NCI-H1666,1.03
16,NCI-H1734,0.119
17,NCI-H1755,0.464

row,Cell Line,relative viability
1,NCI-H1915,0.517
2,NCI-H1944,0.505
3,NCI-H1975,0.129
4,NCI-H1993,0.366
5,NCI-H2009,0.179
6,NCI-H2023,0.224
7,NCI-H2085,0.222
8,NCI-H2087,0.0585
9,NCI-H2126,0.716
10,NCI-H2170,0.404
11,NCI-H2228,0.101
12,NCI-H2347,0.352
13,NCI-H2405,0.376
14,NCI-H3122,0.747
15,PC-3 [JPC-3],0.475
16,PC-14,0.0369
17,RERF-LC-KJ,0.392

# Same assay, conditions: first compound 0.1 µM
row,Cell Line,relative viability
1,NCI-H358,0.0773
2,NCI-H460,0.0182
3,NCI-H520,0.148
4,NCI-H596,0.159
5,NCI-H647,0.0228
6,NCI-H650,0.107
7,NCI-H661,0.215
8,NCI-H727,0.651
9,NCI-H838,0.152
10,NCI-H1355,0.142
11,NCI-H1395,0.316
12,NCI-H1437,0.206
13,NCI-H1650,0.127
14,NCI-H1651,0.104
15,NCI-H1666,0.599
16,NCI-H1734,0.109
17,NCI-H1755,0.383

row,Cell Line,relative viability
1,NCI-H1915,0.0617
2,NCI-H1944,0.215
3,NCI-H1975,0.135
4,NCI-H1993,0.288
5,NCI-H2009,0.0653
6,NCI-H2023,0.0546
7,NCI-H2085,0.3
8,NCI-H2087,0.0243
9,NCI-H2126,0.222
10,NCI-H2170,0.152
11,NCI-H2228,0.0952
12,NCI-H2347,0.303
13,NCI-H2405,0.148
14,NCI-H3122,0.329
15,PC-3 [JPC-3],0.229
16,PC-14,0.0418
17,RERF-LC-KJ,0.242
